{"source": "patent US12677847B2", "about": "“Methods and formulations for reducing bovine emissions” (Elanco US Inc., priority 2015, dated 2026)", "key": {"cattle [1]": {"system": "cattle", "assay": "Reduction of ammonia gas emissions from cattle fed lubabegron for 91 days in cattle pen enclosures", "format": "in vivo", "excerpt": "Prepare lubabegron (L) as 4.5 g/lb of Type A Medicated Article. In a facility having at least eight cattle pen enclosures (CPEs), test two cycles of cattle, each cycle representing all dose (0, 1.25, 5, and 20 g/ton) and gender (steer and heifer) combinations. For the purpose of this example, a cycle refers to a group of 112 animals housed concurrently. Within each cycle, there are 2 cohorts of animals (56 animals per cohort). A cohort refers to a group of same gender animals representing each of the 4 doses. Up to 4 cycles are used to provide a total of 4 cohorts per gender.\nUpon receipt of the cattle, allocate the cattle to CPEs to acclimate for 7 days. After the acclimation phase, for 91 days orally treat via feed one fourth of the cattle allocated to CPEs L 0 g/ton/day; one fourth 1.25 g/ton/day; 5 g/ton/day; and 20 g/ton/day (100% dry matter basis). Provide feed and water ad libitum. On day 91, collect body weight and load cattle for transport to the slaughter facility. On day 92, slaughter the cattle and evaluate the carcass. During the study, monitor and collect ammonia gas emissions data. Measure the ammonia emissions over the treatment period and normalize by body weight (BW) for the period (Days 0-7, 0-14, 0-28, 0-56, and 0-91) and hot carcass weight (HCW) (Days 0-91) (g of gas/animal; g of gas/lb of live BW; g of gas/lb of HCW). Using the process described above, the following results are achieved."}, "cattle [2]": {"system": "cattle", "assay": "Reduction of carbon dioxide gas emissions from cattle fed lubabegron for 14 days in individual chambers", "format": "in vivo", "excerpt": "Prepare lubabegron (L) as 4.5 g/lb of Type A Medicated Article. In an appropriate facility having cattle chambers or rooms for individual animals (chambers), test ten cycles of twelve cattle each, each cycle representing all dose (0, 1.25, 5, and 20 g/ton) with a mixture of genders (steer and heifer).\nUpon receipt of the cattle, allocate the cattle to chambers to acclimate for 7 days. After the acclimation phase, for 14 days orally treat via feed one fourth of the cattle allocated to chambers L 0 g/ton/day; one fourth 1.25 g/ton/day; 5 g/ton/day; and 20 g/ton/day (100% dry matter basis). Provide feed and water ad libitum. On day 14, collect body weight and load cattle for transport to the slaughter facility. On day 15, slaughter the cattle and evaluate the carcass. During the study, monitor and collect carbon dioxide gas emissions data. […] Using the process described above, the following results are achieved."}}}
{"smiles": "CC(C)(Cc1ccc(Oc2ncccc2C#N)cc1)NC[C@H](O)COc1ccccc1-c1cccs1", "note": "[lubabegron]", "values": [{"measurement": "Reduction, as compared to control, g of NH3 gas/animal", "setting": "cattle [1]; 1.25 g/ton in feed, Day 0-7", "value": "5% (5%)"}, {"measurement": "Reduction, as compared to control, g of NH3 gas/lb of live BW", "setting": "cattle [1]; 1.25 g/ton in feed, Day 0-7", "value": "5% (5%)"}, {"measurement": "Reduction, as compared to control, g of NH3 gas/animal", "setting": "cattle [1]; 1.25 g/ton in feed, Day 0-14", "value": 12, "unit": "%"}, {"measurement": "Reduction, as compared to control, g of NH3 gas/lb of live BW", "setting": "cattle [1]; 1.25 g/ton in feed, Day 0-14", "value": 14, "unit": "%"}, {"measurement": "Reduction, as compared to control, g of NH3 gas/animal", "setting": "cattle [1]; 1.25 g/ton in feed, Day 0-28", "value": 15, "unit": "%"}, {"measurement": "Reduction, as compared to control, g of NH3 gas/lb of live BW", "setting": "cattle [1]; 1.25 g/ton in feed, Day 0-28", "value": 16, "unit": "%"}, {"measurement": "Reduction, as compared to control, g of NH3 gas/animal", "setting": "cattle [1]; 1.25 g/ton in feed, Day 0-56", "value": 11, "unit": "%"}, {"measurement": "Reduction, as compared to control, g of NH3 gas/lb of live BW", "setting": "cattle [1]; 1.25 g/ton in feed, Day 0-56", "value": 13, "unit": "%"}, {"measurement": "Reduction, as compared to control, g of NH3 gas/animal", "setting": "cattle [1]; 1.25 g/ton in feed, Day 0-91", "value": 9, "unit": "%"}, {"measurement": "Reduction, as compared to control, g of NH3 gas/lb of HCW", "setting": "cattle [1]; 1.25 g/ton in feed, Day 0-91", "value": 13, "unit": "%"}, {"measurement": "Reduction, as compared to control, g of NH3 gas/lb of live BW", "setting": "cattle [1]; 1.25 g/ton in feed, Day 0-91", "value": 11, "unit": "%"}, {"measurement": "Reduction, as compared to control, g of NH3 gas/animal", "setting": "cattle [1]; 5 g/ton in feed, Day 0-7", "value": 7, "unit": "%"}, {"measurement": "Reduction, as compared to control, g of NH3 gas/lb of live BW", "setting": "cattle [1]; 5 g/ton in feed, Day 0-7", "value": 8, "unit": "%"}, {"measurement": "Reduction, as compared to control, g of NH3 gas/animal", "setting": "cattle [1]; 5 g/ton in feed, Day 0-14", "value": 16, "unit": "%"}, {"measurement": "Reduction, as compared to control, g of NH3 gas/lb of live BW", "setting": "cattle [1]; 5 g/ton in feed, Day 0-14", "value": 17, "unit": "%"}, {"measurement": "Reduction, as compared to control, g of NH3 gas/animal", "setting": "cattle [1]; 5 g/ton in feed, Day 0-28", "value": 20, "unit": "%"}, {"measurement": "Reduction, as compared to control, g of NH3 gas/lb of live BW", "setting": "cattle [1]; 5 g/ton in feed, Day 0-28", "value": 21, "unit": "%"}, {"measurement": "Reduction, as compared to control, g of NH3 gas/animal", "setting": "cattle [1]; 5 g/ton in feed, Day 0-56", "value": 16, "unit": "%"}, {"measurement": "Reduction, as compared to control, g of NH3 gas/lb of live BW", "setting": "cattle [1]; 5 g/ton in feed, Day 0-56", "value": 18, "unit": "%"}, {"measurement": "Reduction, as compared to control, g of NH3 gas/animal", "setting": "cattle [1]; 5 g/ton in feed, Day 0-91", "value": 12, "unit": "%"}, {"measurement": "Reduction, as compared to control, g of NH3 gas/lb of HCW", "setting": "cattle [1]; 5 g/ton in feed, Day 0-91", "value": 16, "unit": "%"}, {"measurement": "Reduction, as compared to control, g of NH3 gas/lb of live BW", "setting": "cattle [1]; 5 g/ton in feed, Day 0-91", "value": 14, "unit": "%"}, {"measurement": "Reduction, as compared to control, g of NH3 gas/animal", "setting": "cattle [1]; 20 g/ton in feed, Day 0-7", "value": 21, "unit": "%"}, {"measurement": "Reduction, as compared to control, g of NH3 gas/lb of live BW", "setting": "cattle [1]; 20 g/ton in feed, Day 0-7", "value": 22, "unit": "%"}, {"measurement": "Reduction, as compared to control, g of NH3 gas/animal", "setting": "cattle [1]; 20 g/ton in feed, Day 0-14", "value": "27% (27%)"}, {"measurement": "Reduction, as compared to control, g of NH3 gas/lb of live BW", "setting": "cattle [1]; 20 g/ton in feed, Day 0-14", "value": "27% (27%)"}, {"measurement": "Reduction, as compared to control, g of NH3 gas/animal", "setting": "cattle [1]; 20 g/ton in feed, Day 0-28", "value": 25, "unit": "%"}, {"measurement": "Reduction, as compared to control, g of NH3 gas/lb of live BW", "setting": "cattle [1]; 20 g/ton in feed, Day 0-28", "value": 26, "unit": "%"}, {"measurement": "Reduction, as compared to control, g of NH3 gas/animal", "setting": "cattle [1]; 20 g/ton in feed, Day 0-56", "value": "19% (19%)"}, {"measurement": "Reduction, as compared to control, g of NH3 gas/lb of live BW", "setting": "cattle [1]; 20 g/ton in feed, Day 0-56", "value": "19% (19%)"}, {"measurement": "Reduction, as compared to control, g of NH3 gas/animal", "setting": "cattle [1]; 20 g/ton in feed, Day 0-91", "value": 13, "unit": "%"}, {"measurement": "Reduction, as compared to control, g of NH3 gas/lb of HCW", "setting": "cattle [1]; 20 g/ton in feed, Day 0-91", "value": 17, "unit": "%"}, {"measurement": "Reduction, as compared to control, g of NH3 gas/lb of live BW", "setting": "cattle [1]; 20 g/ton in feed, Day 0-91", "value": 15, "unit": "%"}, {"measurement": "Reduction, as compared to control, g of CO2 gas/animal", "setting": "cattle [2]; 1.25 g/ton in feed, Day 0-7", "value": "(0.2%)"}, {"measurement": "Reduction, as compared to control, g of CO2 gas/lb of live BW", "setting": "cattle [2]; 1.25 g/ton in feed, Day 0-7", "value": 0, "unit": "%"}, {"measurement": "Reduction, as compared to control, g of CO2 gas/animal", "setting": "cattle [2]; 1.25 g/ton in feed, Day 0-14", "value": "(3%)"}, {"measurement": "Reduction, as compared to control, g of CO2 gas/lb of HCW", "setting": "cattle [2]; 1.25 g/ton in feed, Day 0-14", "value": 4, "unit": "%"}, {"measurement": "Reduction, as compared to control, g of CO2 gas/lb of live BW", "setting": "cattle [2]; 1.25 g/ton in feed, Day 0-14", "value": 2, "unit": "%"}, {"measurement": "Reduction, as compared to control, g of CO2 gas/animal", "setting": "cattle [2]; 1.25 g/ton in feed, Day 7-14", "value": "(5%)"}, {"measurement": "Reduction, as compared to control, g of CO2 gas/lb of HCW", "setting": "cattle [2]; 1.25 g/ton in feed, Day 7-14", "value": 6, "unit": "%"}, {"measurement": "Reduction, as compared to control, g of CO2 gas/lb of live BW", "setting": "cattle [2]; 1.25 g/ton in feed, Day 7-14", "value": 5, "unit": "%"}, {"measurement": "Reduction, as compared to control, g of CO2 gas/animal", "setting": "cattle [2]; 5 g/ton in feed, Day 0-7", "value": "(4%)"}, {"measurement": "Reduction, as compared to control, g of CO2 gas/lb of live BW", "setting": "cattle [2]; 5 g/ton in feed, Day 0-7", "value": 3, "unit": "%"}, {"measurement": "Reduction, as compared to control, g of CO2 gas/animal", "setting": "cattle [2]; 5 g/ton in feed, Day 0-14", "value": "(7%)"}, {"measurement": "Reduction, as compared to control, g of CO2 gas/lb of HCW", "setting": "cattle [2]; 5 g/ton in feed, Day 0-14", "value": 7, "unit": "%"}, {"measurement": "Reduction, as compared to control, g of CO2 gas/lb of live BW", "setting": "cattle [2]; 5 g/ton in feed, Day 0-14", "value": 6, "unit": "%"}, {"measurement": "Reduction, as compared to control, g of CO2 gas/animal", "setting": "cattle [2]; 5 g/ton in feed, Day 7-14", "value": "(10%)"}, {"measurement": "Reduction, as compared to control, g of CO2 gas/lb of HCW", "setting": "cattle [2]; 5 g/ton in feed, Day 7-14", "value": 10, "unit": "%"}, {"measurement": "Reduction, as compared to control, g of CO2 gas/lb of live BW", "setting": "cattle [2]; 5 g/ton in feed, Day 7-14", "value": 9, "unit": "%"}, {"measurement": "Reduction, as compared to control, g of CO2 gas/animal", "setting": "cattle [2]; 20 g/ton in feed, Day 0-7", "value": "(4%)"}, {"measurement": "Reduction, as compared to control, g of CO2 gas/lb of live BW", "setting": "cattle [2]; 20 g/ton in feed, Day 0-7", "value": 4, "unit": "%"}, {"measurement": "Reduction, as compared to control, g of CO2 gas/animal", "setting": "cattle [2]; 20 g/ton in feed, Day 0-14", "value": "(7%)"}, {"measurement": "Reduction, as compared to control, g of CO2 gas/lb of HCW", "setting": "cattle [2]; 20 g/ton in feed, Day 0-14", "value": 7, "unit": "%"}, {"measurement": "Reduction, as compared to control, g of CO2 gas/lb of live BW", "setting": "cattle [2]; 20 g/ton in feed, Day 0-14", "value": 6, "unit": "%"}, {"measurement": "Reduction, as compared to control, g of CO2 gas/animal", "setting": "cattle [2]; 20 g/ton in feed, Day 7-14", "value": "(9%)"}, {"measurement": "Reduction, as compared to control, g of CO2 gas/lb of HCW", "setting": "cattle [2]; 20 g/ton in feed, Day 7-14", "value": 10, "unit": "%"}, {"measurement": "Reduction, as compared to control, g of CO2 gas/lb of live BW", "setting": "cattle [2]; 20 g/ton in feed, Day 7-14", "value": 9, "unit": "%"}]}
